According to patent US20250161273A1, “PHARMACEUTICAL COMPOSITION COMPRISING DIPHENYLDIAZOLE DERIVATIVES AND METHODS OF USE” (MODAG GMBH, priority 2022, published 2025):
Like-named read-outs stand apart in the source and are kept apart here.

Experiment: phase 1 first-in-human trial, single ascending dose (SAD) PK
Format: in vivo
Conditions: for fold increase in AUC / fold increase in Cmax: SAD; for Tmax / AUC(0-t) / Cmax / half-life: human, plasma; for Cmax: read-out: Cmax (geometric mean); for half-life: read-out: T1/2 (geometric mean) (converted)
Method: Anle138b was studied in a single-centre, double-blind, randomised, placebo-controlled single ascending dose (SAD) and multiple ascending dose (MAD) study in healthy subjects. Eligible participants were randomly assigned (1:1 for sentinel subjects and 1:5 for main group) to placebo or anle138b (dose ranging from 50 mg to 300 mg per day), respectively. In addition, the effect of food on the pharmacokinetics (PK) of anle138b in healthy subjects was examined at doses of 150 mg per day (FES, food effect study). Participants were randomized to treatment sequence (fed→fasted) or (fasted→fed). Treatment for the SAD, MAD and FES arms of the study was administered orally in hard gelatin capsules containing either 10 mg or 30 mg of anle138b with excipient (i.e., lauroyl polyoxyl-32 glycerides) or excipient only. The primary endpoints were safety and tolerability, the secondary endpoint was pharmacokinetics. Data from all randomized individuals were evaluated. [Clinicaltrials.gov-identifier: NCT04208152. EudraCT-number: 2019-004218-33]
Study design: A single-centre, double-blind, randomised, placebo-controlled single ascending dose (SAD) and multiple ascending dose (MAD) study of anle138b in doses of up to 300 mg per day in healthy subjects. The effect of food (FES) on the PK of anle138b in healthy subjects was examined using doses of 150 mg. Participants were recruited from Quotient Sciences (the “CRO”, Nottingham, UK) volunteer database. Approvals from the ethical review board and from the Medicines and Healthcare products Regulatory Agency (UK) were obtained. This study was conducted in accordance with the protocol and with the following legislation: The updated version of the international Council for Harmonisation Good Clinical Practice (GCP) including the integrated Addendum E6, the Medicines for Human Use (Clinical Trials) Regulations including amendments No. 1928, 2984 and 941. In addition, the study was performed according to the ethical principles outlined in the World Medical Association Declaration of Helsinki and its amendments. The study data was monitored. An independent study monitor was appointed to verify that the study was conducted in accordance with current GCP, regulatory requirements, the protocol and that the data were authentic, accurate and complete.
In SAD, subjects received a single dose of anle138b or placebo after fasting from all food and drink (except water) for a minimum of 8 h prior to dosing. The dosing in the four SAD-cohorts were 50 mg, 100 mg, 200 mg and 300 mg of free anle138b equivalent, QD, cohorts A, B, C and D respectively. In the MAD part, participants received anle138b or placebo once daily (QD) for 7 days after fasting from all food and drink (except water) for a minimum of 8 h prior to dosing. The dosing in the three MAD-cohorts was 100 mg, 200 mg and 300 mg of free anle138b equivalent, cohorts AM, BM and CM, respectively. Post dosing mouth and hand checks were conducted to ensure the capsules were swallowed. In-study decisions were made by the safety advisory committee (SAC) comprising the principal investigator, the sponsor's medical monitor and a PK expert. For dose escalation to proceed, data needed to be available from a minimum of 6 subjects per cohort with completed per protocol safety and PK assessments up to 48 h after dosing to ensure at least 4 subjects had received active IMP. The decision to proceed to the next higher dose level was based on safety, tolerability and available PK data to 48 h post-administration. The following data were analyzed: Adverse events, vital signs, safety laboratory, ECG, physical examinations, plasma concentrations of anle138b with interim PK parameter estimations (Tmax, Cmax, AUC0-24, AUC0-tau, AUC0-last and T½, where applicable). Data were provided to the SAC in accordance with CRO standard operating procedure (SOP) on interim dose decision-making and dose escalation. […]

[1] = 1.5-fold increase in dose from 200 mg to 300 mg
[2] = 2-fold increase in dose from 50 mg to 100 mg
[3] = 2-fold increase in dose from 100 mg to 200 mg
[4] = po, 50 mg, healthy volunteers, fasted, single oral 50 mg
[5] = po, 100 mg, healthy volunteers, fasted, single oral 100 mg
[6] = po, 200 mg, healthy volunteers, fasted, single oral 200 mg
[7] = po, 300 mg, healthy volunteers, fasted, single oral 300 mg

Q: Which results are given for `Brc1cccc(-c2cc(-c3ccc4c(c3)OCO4)n[nH]2)c1` [anle138b, 3-(1,3-benzodioxol-5-yl)-5-(3-bromophenyl)-1H-pyrazole]?
A: fold increase in AUC [1]: ~1.5 fold; fold increase in Cmax [1]: ~1.5 fold; fold increase in AUC [2]: ~3.3 fold; fold increase in Cmax [2]: ~2.9 fold; fold increase in AUC [3]: ~3.0 fold; fold increase in Cmax [3]: ~2.9 fold; practical terminal elimination half-time (healthy volunteers, overall): ~12 h; Tmax (oral, healthy volunteers, single dose 50-300 mg, post-administration, read-out: median Tmax, all SAD cohorts): 1 to 1.5 h; Tmax (po, 50 mg, healthy volunteers, fasted, single oral 50 mg (Cohort A), read-out: Tmax (median)): 1 h; Tmax (po, 50 mg, healthy volunteers, fasted, single oral 50 mg (Cohort A), read-out: Tmax (range)): 0.5 to 2 h; AUC(0-t) (po, 50 mg, healthy volunteers, fasted, single oral 50 mg, read-out: AUC(0-24) (geometric mean)): ~113 ng·h/mL; AUC(0-t) (po, 50 mg, healthy volunteers, fasted, single oral 50 mg, read-out: AUC(0-last) (geometric mean)): 109 ng·h/mL; Cmax [4]: ~54.3 ng/mL; half-life [4]: 3.9 h; Tmax (po, 100 mg, healthy volunteers, fasted, single oral 100 mg (Cohort B), read-out: Tmax (median)): 1.5 h; Tmax (po, 100 mg, healthy volunteers, fasted, single oral 100 mg (Cohort B), read-out: Tmax (range)): 0.5 to 2 h; AUC(0-t) (po, 100 mg, healthy volunteers, fasted, single oral 100 mg, read-out: AUC(0-24) (geometric mean)): > 300 ng·h/mL; AUC(0-t) (po, 100 mg, healthy volunteers, fasted, single oral 100 mg, read-out: AUC(0-last) (geometric mean)): 372 ng·h/mL; Cmax [5]: ~156 ng/mL; half-life [5]: 10.8 h; Tmax (po, 200 mg, healthy volunteers, fasted, single oral 200 mg (Cohort C), read-out: Tmax (median)): 1.5 h; Tmax (po, 200 mg, healthy volunteers, fasted, single oral 200 mg (Cohort C), read-out: Tmax (range)): 1 to 2 h; AUC(0-t) (po, 200 mg, healthy volunteers, fasted, single oral 200 mg, read-out: AUC(0-24) (geometric mean)): ~1090 ng·h/mL; AUC(0-t) (po, 200 mg, healthy volunteers, fasted, single oral 200 mg, read-out: AUC(0-last) (geometric mean)): 1130 ng·h/mL; Cmax [6]: ~458 ng/mL; half-life [6]: 12.8 h; Tmax (po, 300 mg, healthy volunteers, fasted, single oral 300 mg (Cohort D), read-out: Tmax (median)): 1.5 h; Tmax (po, 300 mg, healthy volunteers, fasted, single oral 300 mg (Cohort D), read-out: Tmax (range)): 1.5 to 2 h; AUC(0-t) (po, 300 mg, healthy volunteers, fasted, single oral 300 mg, read-out: AUC(0-24) (geometric mean)): ~1650 ng·h/mL; AUC(0-t) (po, 300 mg, healthy volunteers, fasted, single oral 300 mg, read-out: AUC(0-last) (geometric mean)): 1720 ng·h/mL; Cmax [7]: ~704 ng/mL; half-life [7]: 16.2 h
